Here are results for ten compounds from US20250195513A1, “DEGRADATION OF IRAK4 BY CONJUGATION OF IRAK4 INHIBITORS WITH E3 LIGASE LIGAND AND METHODS OF USE” (BeiGene, Ltd., priority 2022, published 2025).

Where only a bound is given, the exact number is not on record here.

What all share (type): cell-based
For assay [1], the target named is T1, IRAK4 (Homo sapiens, UniProt Q9NWZ3).
T1 construct: endogenous in cells; host or cells: Karpas299
T1 sequence (Q9NWZ3 1-460): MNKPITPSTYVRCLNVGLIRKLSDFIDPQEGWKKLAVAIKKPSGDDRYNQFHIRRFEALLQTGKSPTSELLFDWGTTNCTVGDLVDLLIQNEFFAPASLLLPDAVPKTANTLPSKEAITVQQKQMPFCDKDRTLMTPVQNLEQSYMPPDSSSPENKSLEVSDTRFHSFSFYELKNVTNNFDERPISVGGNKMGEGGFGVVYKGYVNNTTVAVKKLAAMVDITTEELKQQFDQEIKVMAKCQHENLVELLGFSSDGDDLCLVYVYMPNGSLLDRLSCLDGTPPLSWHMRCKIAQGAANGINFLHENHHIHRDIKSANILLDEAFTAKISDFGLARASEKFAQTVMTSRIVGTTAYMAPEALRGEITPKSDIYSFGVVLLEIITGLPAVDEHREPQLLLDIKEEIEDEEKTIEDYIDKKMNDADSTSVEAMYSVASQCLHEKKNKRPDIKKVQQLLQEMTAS
Description: IRAK4 Degradation Assay (Karpas299, HTRF/TR-FRET). Put shortly: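 Karpas299 cells at 0.2 million per well were exposed to serially diluted compounds for 24 h or 5 h, then lysed. IRAK4 remaining in lysates was quantified by HTRF (665/620 nm) after overnight antibody incubation at room temperature. Percent degradation was fitted to a four-parameter curve to give IC50 (DC50).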

In assay [2] the test system is TNF-α production in THP-1 cells. The assay can be described thus: TNF-α Production Assay in THP-1 Cells (LPS stimulated). The settings on record: for IC50 / Emax: THP-1, 24 h; for Emax: read-out: TNF-α (THP-1) 24 h IMax. Put shortly:
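Cells (0.2 million/well) pretreated with compounds for 24 h, then stimulated with LPS at 1 μg/mL final for 24 h. TNF-α in culture supernatant quantified by TR-FRET immunoassay.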

Assay [3] concerns IL-6 production in human PBMC. The assay can be described thus: IL-6 Production Assay in Human PBMC (LPS stimulated). To be noted: for IC50 / Emax: Homo sapiens, 5 h; for Emax: read-out: IL-6 (PBMC) 5 h IMax. The method, then:
Frozen human PBMC (AllCells) were thawed in RPMI 1640 medium (Thermo Scientific) supplemented with 10% heat-inactivated FBS (Thermo Scientific) and recovered at 37° C. overnight. The next day, PBMC were seeded into 96-well plates at the density of 0.2 million cells per well and treated with compounds for 24 h. Then lipopolysaccharide was added at the final concentration of 10 ng/mL for 5 h. Culture supernatant was collected for subsequent measurement of IL-6 concentration by a TR-FRET-based method (Degorce, François, et al. Current chemical genomics. 2009, 3: 22) as described by the manufacturer manual (Cisbio). FRET signals were measured with PHERAstar FSX reader (BMG Labtech).

Assay [4] concerns the target T1, IRAK4. The assay can be described thus: IRAK4 Degradation Assay with Human Serum (Karpas299, HTRF/TR-FRET). To be noted: Karpas-299 in human serum, 24 hrs treatment; for DC50: read-out: IRAK4 degradtion with human serum assay DC50; for Dmax: read-out: IRAK4 degradtion with human serum assay Dmax (%). Put shortly: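 Karpas299 cells in human AB serum (0.2 million/well) treated with serial compound dilutions for 24 h. After lysis, IRAK4 quantified by HTRF (overnight antibody incubation at room temperature, 665/620 nm read). Degradation percentage fitted to four-parameter curve to give DC50.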

Where [5] appears, read: Karpas-299 cells, 5 h treatment, maximum percentage of degradation, read-out: IRAK4 in Karpas-299 (5 h) Dmax (%).
[6] abbreviates: Karpas-299 cells, 5 h treatment, read-out: IRAK4 in Karpas-299 (5 h) DC50.
[7] abbreviates: Karpas-299 cells, 24 h treatment, maximum percentage of degradation, read-out: IRAK4 in Karpas-299 (24 h) Dmax (%).
[8] abbreviates: Karpas-299 cells, 24 h treatment, read-out: IRAK4 in Karpas-299 (24 h) DC50.
The mark [9] stands for this setting: Homo sapiens, maximum inhibition.

Consider `NC(=O)c1nn([C@H]2CC[C@H](N3CCN(C(=O)[C@@H]4CCN(c5cc(F)c([C@H]6CCC(=O)NC6=O)c(F)c5)C4)CC3)CC2)cc1NC(=O)c1coc(-c2ccnc(NCC(F)(F)F)c2)n1` [Example 12, N-(3-carbamoyl-1-((1R,4r)-4-(4-((R)-1-(4-((R)-2,6-dioxopiperidin-3-yl)-3,5-difluorophenyl)pyrrolidine-3-carbonyl)piperazin-1-yl)cyclohexyl)-1H-pyrazol-4-yl)-2-(2-((2,2,2-trifluoroethyl)amino)pyridin-4-yl)oxazole-4-carboxamide], for which the Dmax at IRAK4 [1] (setting [5]) turned out to be 97%; on IRAK4 [1] (setting [7]) it was 98%. For the same compound, the results for the 50% degradation concentration (DC50) on IRAK4 [1] (setting [6]) and on IRAK4 [1] (setting [8]) were 5.4 nM and 1.8 nM, respectively. The half-maximal inhibitory concentration (IC50) in assay [2] (Homo sapiens) was found to be 25 nM; in assay [3], 4.6 nM. The Emax in assay [2] (setting [9]) was 90%; in assay [3] (maximum inhibition) it was 91%.
Take `CC(C)(O)c1cc2nn(C3CCN(C4CCN(C(=O)[C@@H]5CCN(c6cc(F)c([C@H]7CCC(=O)NC7=O)c(F)c6)C5)CC4)CC3)cc2cc1NC(=O)c1cccc(C(F)(F)F)n1` [Example 161, N-(2-(1′-((R)-1-(4-((R)-2,6-dioxopiperidin-3-yl)-3,5-difluorophenyl)pyrrolidine-3-carbonyl)-[1,4′-bipiperidin]-4-yl)-6-(2-hydroxypropan-2-yl)-2H-indazol-5-yl)-6-(trifluoromethyl)picolinamide]: the greatest degradation seen (Dmax) on IRAK4 [1] (setting [5]) is 91%; at IRAK4 [1] (setting [7]), 97%. Also, the results for the 50% degradation concentration (DC50) on IRAK4 [1] (setting [6]) and at IRAK4 [1] (setting [8]) were 5 nM and 0.3 nM, respectively. The half-inhibitory concentration (IC50) in assay [2] (Homo sapiens) amounted to 38 nM; in assay [3], 4.9 nM. In addition, the Emax was determined as 85% in assay [2] (setting [9]) and 90% in assay [3] (maximum inhibition).
In assay [2], `CC[C@@H]1[C@H](F)C(=O)N[C@@H]1COc1nccc2cc(C(N)=O)c(OC)cc12` [PF-06650833] yielded an IC50 of 19 nM. Besides, in assay [2] (maximum inhibition), the “TNF-α (THP-1) 24 h IMax” value was determined as 67%. Besides, the “IL-6 (PBMC) 5 h IMax” value in assay [3] (maximum inhibition) was less than 50%.
Turning to `COc1cc2nn([C@H]3CC[C@H](N4CCN(C(=O)C5CN(c6ccc(N7CCC(=O)NC7=O)cc6)C5)CC4)CC3)cc2cc1NC(=O)c1cccc(C(F)(F)F)n1` [Example 37, N-(2-((1r,4r)-4-(4-(1-(4-(2,4-dioxotetrahydropyrimidin-1(2H)-yl)phenyl)azetidine-3-carbonyl)piperazin-1-yl)cyclohexyl)-6-methoxy-2H-indazol-5-yl)-6-(trifluoromethyl)picolinamide], the DC50 at IRAK4 [1] (Degradation (Karpas-299), comparison table, Linker Type B, read-out: Compound (Linker Type B) DC50) amounted to 0.7 nM; at IRAK4 [1] (setting [6]), 9.1 nM; at IRAK4 [1] (setting [8]) it was 0.7 nM. In addition, the Dmax stood at 96% on IRAK4 [1] (Degradation (Karpas-299), comparison table, Linker Type B, read-out: Compound (Linker Type B) Dmax (%)); 93% on IRAK4 [1] (setting [5]); 96% at IRAK4 [1] (setting [7]). Moreover, the half-maximal inhibitory concentration (IC50) in assay [2] (Homo sapiens) was 34 nM; in assay [3] it was 11 nM. The Emax in assay [2] (setting [9]) stood at 82%; in assay [3] (maximum inhibition), 90%.
Consider `COC[C@@H]1CN(CCc2cc(F)c([C@H]3CCC(=O)NC3=O)c(F)c2)CCN1[C@H]1CC[C@H](n2cc3cc(NC(=O)c4ccc5cc(C#N)cnn45)c(C(C)(C)O)cc3n2)CC1` [Example 325, 3-cyano-N-(2-((1S,4r)-4-((S)-4-(4-((R)-2,6-dioxopiperidin-3-yl)-3,5-difluorophenethyl)-2-(methoxymethyl)piperazin-1-yl)cyclohexyl)-6-(2-hydroxypropan-2-yl)-2H-indazol-5-yl)pyrrolo[1,2-b]pyridazine-7-carboxamide], for which the Dmax on IRAK4 [1] (setting [7]) was found to be 96%; on IRAK4 [4] it was 91%. Moreover, the DC50 at IRAK4 [1] (setting [8]) amounted to 0.9 nM; on IRAK4 [4], 15 nM. Moreover, the concentration for half-maximal inhibition (IC50) in assay [3] is 4.2 nM. For the same compound, the Emax in assay [3] (maximum inhibition) was found to be 72%.
Take `COc1cc2nn([C@H]3CC[C@H](N4CCN(CC5CN(c6cc(F)c([C@H]7CCC(=O)NC7=O)c(F)c6)C5)CC4)CC3)cc2cc1C(=O)Nc1cnc2cccnn12` [Example 345, 2-((1r,4r)-4-(4-((1-(4-((R)-2,6-dioxopiperidin-3-yl)-3,5-difluorophenyl)azetidin-3-yl)methyl)piperazin-1-yl)cyclohexyl)-N-(imidazo[1,2-b]pyridazin-3-yl)-6-methoxy-2H-indazole-5-carboxamide]: the figures for the greatest degradation seen (Dmax) at IRAK4 [1] (setting [7]) and on IRAK4 [4] were 98% and 96%, respectively. The half-maximal degradation concentration (DC50) came out at 0.2 nM at IRAK4 [1] (setting [8]) and 0.7 nM on IRAK4 [4]. Besides, in assay [3], the half-maximal inhibitory concentration (IC50) was 3.5 nM. In addition, the Emax in assay [3] (maximum inhibition) came out at 60%.
With `CC(C)(O)c1cc2nn([C@H]3CC[C@H](N4CCN(C(=O)C5CN(c6cc(F)c([C@H]7CCC(=O)NC7=O)c(F)c6)C5)CC4)CC3)cc2cc1NC(=O)c1cccc(C(F)(F)F)n1` [Example 38, N-(2-((1r,4r)-4-(4-(1-(4-((R)-2,6-dioxopiperidin-3-yl)-3,5-difluorophenyl)azetidine-3-carbonyl)piperazin-1-yl)cyclohexyl)-6-(2-hydroxypropan-2-yl)-2H-indazol-5-yl)-6-(trifluoromethyl)picolinamide], the Dmax on IRAK4 [1] (setting [5]) stood at 95%; at IRAK4 [1] (setting [7]) it was 99%. The half-maximal degradation concentration (DC50) at IRAK4 [1] (setting [6]) came to 2.3 nM; at IRAK4 [1] (setting [8]) it was 0.4 nM. Besides, the results for the concentration for half-maximal inhibition (IC50) in assay [2] (Homo sapiens) and in assay [3] were 19 nM and 2.1 nM, respectively. In addition, the results for the Emax in assay [2] (setting [9]) and in assay [3] (maximum inhibition) were 87% and 91%, respectively.
On to `O=C1CC[C@H](c2c(F)cc(N3CC[C@@H](C(=O)N4CCN([C@H]5CC[C@H](n6cc(NC(=O)c7coc(-c8ccnc(NCC(F)(F)F)c8)n7)c(C(F)F)n6)CC5)CC4)C3)cc2F)C(=O)N1` [Example 17, N-(3-(difluoromethyl)-1-((1R,4r)-4-(4-((R)-1-(4-((R)-2,6-dioxopiperidin-3-yl)-3,5-difluorophenyl)pyrrolidine-3-carbonyl)piperazin-1-yl)cyclohexyl)-1H-pyrazol-4-yl)-2-(2-((2,2,2-trifluoroethyl)amino)pyridin-4-yl)oxazole-4-carboxamide], for which the greatest degradation seen (Dmax) was determined as 96% on IRAK4 [1] (setting [5]) and 97% on IRAK4 [1] (setting [7]). Further, the 50% degradation concentration (DC50) at IRAK4 [1] (setting [6]) is 8.8 nM; at IRAK4 [1] (setting [8]), 2.2 nM. Moreover, the IC50 was 34 nM in assay [2] (Homo sapiens) and 6.7 nM in assay [3]. The Emax in assay [2] (setting [9]) was found to be 87%; in assay [3] (maximum inhibition), 93%.
For the compound `CC(C)(O)c1cc2nc(C3CCN(C4CCN(C(=O)C5CN(c6cc(F)c([C@H]7CCC(=O)NC7=O)c(F)c6)C5)CC4)CC3)cn2cc1NC(=O)c1cccc(C(F)(F)F)n1` [Example 126, (R)—N-(2-(1′-(1-(4-(2,6-dioxopiperidin-3-yl)-3,5-difluorophenyl)azetidine-3-carbonyl)-[1,4′-bipiperidin]-4-yl)-7-(2-hydroxypropan-2-yl)imidazo[1,2-a]pyridin-6-yl)-6-(trifluoromethyl)picolinamide], the maximal degradation (Dmax) on IRAK4 [1] (setting [5]) is 92%; at IRAK4 [1] (setting [7]), 99%. Also, the DC50 at IRAK4 [1] (setting [6]) amounted to 8.4 nM; on IRAK4 [1] (setting [8]) it was 1.1 nM. The IC50 in assay [2] (Homo sapiens) was determined as 43 nM; in assay [3], 23 nM. For the same compound, the Emax was determined as 88% in assay [2] (setting [9]) and 90% in assay [3] (maximum inhibition).
Consider `CC(C)(O)c1cc2nn(C3CCC(N4C[C@@H]5CN(C6CN(c7cc(F)c([C@H]8CCC(=O)NC8=O)c(F)c7)C6)C[C@H]5C4)CC3)cc2cc1NC(=O)c1ccc2cc(C#N)cnn12` (stereo partly drawn) [Example 360, 3-cyano-N-(2-((1R,4r)-4-((3aR,6aR)-5-(1-(4-((R)-2,6-dioxopiperidin-3-yl)-3,5-difluorophenyl)azetidin-3-yl)hexahydropyrrolo[3,4-c]pyrrol-2(1H)-yl)cyclohexyl)-6-(2-hydroxypropan-2-yl)-2H-indazol-5-yl)pyrrolo[1,2-b]pyridazine-7-carboxamide], for which the Dmax on IRAK4 [1] (setting [7]) came out at 97%; at IRAK4 [4], 98%. Further, the DC50 turned out to be 0.6 nM on IRAK4 [1] (setting [8]) and 1.8 nM at IRAK4 [4]. This compound also showed a concentration for half-maximal inhibition (IC50) in assay [3] of 0.6 nM. In addition, the Emax in assay [3] (maximum inhibition) stood at 67%.
